For orientation: IC50 means the concentration that inhibits the measured activity by half.

T1 sequence (J9SQF3 1-1709 isoform J9SQF3-12): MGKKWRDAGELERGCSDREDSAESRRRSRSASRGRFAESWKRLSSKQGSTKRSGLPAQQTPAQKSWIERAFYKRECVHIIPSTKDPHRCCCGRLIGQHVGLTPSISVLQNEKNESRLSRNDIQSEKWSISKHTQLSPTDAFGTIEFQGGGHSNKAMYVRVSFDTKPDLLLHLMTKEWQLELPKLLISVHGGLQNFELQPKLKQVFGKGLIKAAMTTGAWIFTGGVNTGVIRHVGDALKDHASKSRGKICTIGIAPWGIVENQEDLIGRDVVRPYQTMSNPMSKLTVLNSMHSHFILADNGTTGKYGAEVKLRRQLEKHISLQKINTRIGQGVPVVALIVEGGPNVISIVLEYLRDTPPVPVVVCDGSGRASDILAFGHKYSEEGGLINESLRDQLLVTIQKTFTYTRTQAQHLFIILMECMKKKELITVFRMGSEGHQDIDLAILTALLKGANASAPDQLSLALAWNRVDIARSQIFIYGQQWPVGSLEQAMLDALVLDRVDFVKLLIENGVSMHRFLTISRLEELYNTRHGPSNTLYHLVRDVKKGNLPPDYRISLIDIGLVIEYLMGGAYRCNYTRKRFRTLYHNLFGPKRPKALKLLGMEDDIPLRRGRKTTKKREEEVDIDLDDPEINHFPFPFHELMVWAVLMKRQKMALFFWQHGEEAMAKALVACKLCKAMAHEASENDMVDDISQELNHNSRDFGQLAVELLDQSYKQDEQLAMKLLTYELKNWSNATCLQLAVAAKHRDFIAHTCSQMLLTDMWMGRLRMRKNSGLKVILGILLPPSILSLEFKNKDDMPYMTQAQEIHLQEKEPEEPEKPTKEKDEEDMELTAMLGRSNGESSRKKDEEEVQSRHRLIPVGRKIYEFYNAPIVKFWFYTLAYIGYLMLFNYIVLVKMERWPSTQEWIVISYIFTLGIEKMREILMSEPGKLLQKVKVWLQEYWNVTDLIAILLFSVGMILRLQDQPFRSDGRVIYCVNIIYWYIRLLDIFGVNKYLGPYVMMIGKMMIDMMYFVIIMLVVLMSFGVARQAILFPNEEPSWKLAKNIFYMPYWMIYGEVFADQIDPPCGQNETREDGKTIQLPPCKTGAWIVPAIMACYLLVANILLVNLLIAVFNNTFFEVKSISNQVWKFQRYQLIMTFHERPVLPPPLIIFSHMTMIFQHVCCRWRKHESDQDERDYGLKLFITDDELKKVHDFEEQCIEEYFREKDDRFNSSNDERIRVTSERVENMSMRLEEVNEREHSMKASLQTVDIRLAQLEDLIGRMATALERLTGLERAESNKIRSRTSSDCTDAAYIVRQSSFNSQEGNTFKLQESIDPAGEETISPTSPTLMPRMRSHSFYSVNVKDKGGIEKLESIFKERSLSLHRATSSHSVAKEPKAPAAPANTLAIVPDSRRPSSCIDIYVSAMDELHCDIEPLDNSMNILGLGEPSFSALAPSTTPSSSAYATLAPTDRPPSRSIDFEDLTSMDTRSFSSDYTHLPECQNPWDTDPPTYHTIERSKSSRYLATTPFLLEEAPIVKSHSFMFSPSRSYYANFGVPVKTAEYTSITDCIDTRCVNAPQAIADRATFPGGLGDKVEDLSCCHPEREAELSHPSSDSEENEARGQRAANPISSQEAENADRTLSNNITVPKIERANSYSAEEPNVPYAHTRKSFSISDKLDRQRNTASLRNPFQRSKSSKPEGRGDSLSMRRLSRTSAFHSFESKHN

The first assay concerns the target T1, mouse TRPM3a2 (mTRPM3) ion channel (Mus musculus, UniProt J9SQF3).
T1 construct: expressed in transfected cells; host or cells: flip-in HEK293
Kind of assay: TRPM3 ion channel driven Ca2+ uptake, Fluo-4 AM assay (PS-stimulated, overexpressing flip-in HEK293 cells). In kind it is cell-based. The settings on record: PS (50 μM) stimulated Ca2+ influx, HEK293, cpds 300-399. The protocol: In order to monitor the inhibition of the mouse TRPM3a2 (mTRPM3) ion channel by the compounds of the invention, a cellular system making use of an mTRPM3alpha2 or hTRPM3 overexpressing cell line (flip-in HEK293) was used. The TRPM3 channel was stimulated/opened with Pregnenolone sulfate (PS) (50 μM) which results in Ca^2+ influx.
For mTRPM3, the intracellular Ca^2+ was measured with a Calcium responsive dye, Fluor-4 AM ester (Invitrogen). Cells were cultured until a confluence of 80-90%, washed with Versene (Invitrogen) and detached from the surface by a short incubation with 0.05% Trypsin (Invitrogen). The trypsination process was stopped by the addition of complete cell culture medium (DMEM, glutamax, 10% FCS, NEAA, Pen-Strep). Cells were collected and resuspended in Krebs buffer without Calcium at RT.
Prior the cell seeding (±2000 cells/well into a black, 384 well plate (Greiner)) the diluted compound was added in the assay plate, together with the PS dissolved in Krebs buffer containing Calcium. […] Directly after cell addition the plates were read on an Envision fluorescence reader (Perkin Elmer) by an Excitation of 485 nm and emission at 535 nm.
Channel inhibition was calculated compared to a non-PS stimulated control versus a condition stimulated with PS (50 μM) with vehicle. The ability of the compounds of the invention to inhibit this activity was determined as: Percentage inhibition=[1-((RFU determined for sample with test compound present—RFU determined for sample with positive control inhibitor) divided by (RFU determined in the presence of vehicle—RFU determined for sample with positive control inhibitor))]*100.
Molecule `Cc1ncsc1COc1ccc2oc(C)c(C(=O)NC3CCN(CCO)C3=O)c2c1F` (single isomer, unassigned) [326 - En 1] gave an IC50 of at most 1000 nM. As for `Cc1ncsc1COc1ccc2oc(C)c(C(=O)NC3CCN(CCO)C3=O)c2c1F` (single isomer, unassigned) [326 - En 2], the half-maximal inhibitory concentration (IC50) was 1000 to 20000 nM. The molecule `Cc1oc2ccc(OCc3ccnn3CC(F)F)cc2c1C(=O)NC1(CO)CCNC1=O` (single isomer, unassigned) [333 - En 1] registered an IC50 of at most 1000 nM. The molecule `CCOc1ncccc1COc1ccc2oc(C)c(C(=O)NC3CCN(CCO)C3=O)c2c1` (single isomer, unassigned) [348 - En 1] registered an IC50 of at most 1000 nM. Same read-out and setting: for `Cc1oc2ccc(OCc3c(F)cnn3C)cc2c1C(=O)NC1(CO)CCCNC1=O` (single isomer, unassigned) [355 - En 1] the value was at most 1000 nM. The molecule `Cc1oc2ccc(OCc3c(F)cnn3C)cc2c1C(=O)NC1(CO)CCNC1=O` (single isomer, unassigned) [356 - En 1] registered an IC50 of at most 1000 nM. `Cc1ncsc1COc1cc2c(C(=O)NC3CCN(CCO)C3=O)c(C)oc2cc1F` (single isomer, unassigned) [360 - En 1] had an IC50 of at most 1000 nM. Take `Cc1ncsc1COc1cc(F)c2oc(C)c(C(=O)NC3CCN(CCO)C3=O)c2c1` (single isomer, unassigned) [365 - En 1]: the IC50 is at least 20000 nM.

`Cc1ncc(COc2ccc3oc(C)c(C(=O)NC4COCC4O)c3c2)s1` (single isomer, unassigned) [386 - En 1] registered an IC50 of at most 1000 nM. Still for that read-out and setting: for `Cc1ncc(COc2ccc3oc(C)c(C(=O)NC4COCC4O)c3c2)s1` (single isomer, unassigned) [386 - En 2] the value was 1000 to 20000 nM; for `Cc1oc2ccc(OCc3ccccn3)cc2c1C(=O)NC1COCC1O` (single isomer, unassigned) [387 - En 1], at most 1000 nM. In turn, `Cc1ncc(COc2ccc3oc(C)c(C(=O)NC4COCC4O)c3c2)s1` (single isomer, unassigned) [388 - En 1] had an IC50 of at most 1000 nM. On to `Cc1ncc(COc2ccc3oc(C)c(C(=O)NC4COCC4O)c3c2)s1` (single isomer, unassigned) [388 - En 2], for which the IC50 was in the range of 1000 to 20000 nM.

Still in this assay, the particulars now being: PS (50 μM) stimulated, cpd 001-199.
With `Cc1oc2ccc(OCc3cccnc3C(F)(F)F)cc2c1C(=O)O`, the IC50 lay within 1000 to 20000 nM. Still for that read-out and setting: in the case of `Cc1ncsc1COc1ccc2oc(C)c(C(=O)NC3CCN(C)CC3(F)F)c2c1` (single isomer, unassigned) [110 - En 1] it was at most 1000 nM; in that of `Cc1ncsc1COc1ccc2oc(C)c(C(=O)NC3CN(C)CCC3(F)F)c2c1` (single isomer, unassigned) [118 - En 1], at most 1000 nM. With `Cc1ncsc1COc1ccc2oc(C)c(C(=O)NC3CN(C)CC3(F)F)c2c1` (single isomer, unassigned) [123 - En 1], the IC50 was at most 1000 nM.

`Cc1oc2ccc(OCc3cccnc3C(F)(F)F)cc2c1C(=O)NC1(CCO)CCOC1` (single isomer, unassigned) [126 - En 1] displayed an IC50 of at most 1000 nM. With `Cc1oc2ccc(OCc3cccnc3C(F)(F)F)cc2c1C(=O)NC1CCN(C)CC1(F)F` (single isomer, unassigned) [130 - En 1], the IC50 was at most 1000 nM. On to `Cc1oc2ccc(OCc3cccnc3C(F)(F)F)cc2c1C(=O)NC1CN(C)CCC1(F)F` (single isomer, unassigned) [131 - En 1], for which the IC50 is at most 1000 nM. For `Cc1oc2ccc(OCc3cccnc3C(F)(F)F)cc2c1C(=O)NC1CN(CCO)CC1(F)F` (single isomer, unassigned) [134 - En 1], the IC50 lay within 1000 to 20000 nM. Turning to `Cc1oc2ccc(OCc3cccnc3C(F)(F)F)cc2c1C(=O)NC1CN(CCO)CC1(F)F` (single isomer, unassigned) [134 - En 2], the IC50 was at most 1000 nM. The molecule `Cc1oc2ccc(OCc3cccnc3C(F)(F)F)cc2c1C(=O)NC1CN(C)CC(F)(F)C1` (single isomer, unassigned) [141 - En 1] returned an IC50 of at most 1000 nM. `Cc1ncsc1COc1ccc2oc(C)c(C(=O)NC3CN(CCO)CC3(F)F)c2c1` (single isomer, unassigned) [151 - En 1] showed an IC50 of at most 1000 nM. Molecule `Cc1ncsc1COc1ccc2oc(C)c(C(=O)NC3CN(CC(F)(F)F)CC3(F)F)c2c1` (single isomer, unassigned) [155 - En 1, N-(4,4-difluoro-1-(2,2,2-trifluoroethyl)pyrrolidin-3-yl)-2-methyl-5-((4-methylthiazol-5-yl)me-thoxy)benzofuran-3-carboxamide] gave an IC50 of at most 1000 nM. In turn, `Cc1ncsc1COc1ccc2oc(C)c(C(=O)NC3CN(CC(F)(F)F)CC3(F)F)c2c1` (single isomer, unassigned) [155 - En 2, N-(4,4-difluoro-1-(2,2,2-trifluoroethyl)pyrrolidin-3-yl)-2-methyl-5-((4-methylthiazol-5-yl)me-thoxy)benzofuran-3-carboxamide] yielded an IC50 of at most 1000 nM. `Cc1ncsc1COc1ccc2oc(C)c(C(=O)NC3CN(C)CC(F)(F)C3)c2c1` (single isomer, unassigned) [163 - En 1] had an IC50 of at most 1000 nM. In turn, `Cc1oc2cc(Cl)c(OCc3cccnc3C(F)(F)F)cc2c1C(=O)NC1CCNCC1(F)F` (single isomer, unassigned) [165 - En 1] registered an IC50 of at most 1000 nM. As for `Cc1oc2cc(Cl)c(OCc3cccnc3C(F)(F)F)cc2c1C(=O)NC1CCNCC1(F)F` (single isomer, unassigned) [165 - En 2], the IC50 was in the range of 1000 to 20000 nM. In the case of `COCCN1CCC(NC(=O)c2c(C)oc3ccc(OCc4scnc4C)cc23)C1=O` (single isomer, unassigned) [169 - En 1], the half-inhibitory concentration (IC50) was at most 1000 nM. As to `COCCN1CCC(NC(=O)c2c(C)oc3ccc(OCc4scnc4C)cc23)C1=O` (single isomer, unassigned) [169 - En 2], the IC50 was at most 1000 nM.

Regarding `Cc1ncsc1COc1ccc2oc(C)c(C(=O)NC3CC(=O)N(CCO)C3)c2c1` (single isomer, unassigned) [180 - En 1], the IC50 was 1000 to 20000 nM. On to `Cc1oc2c(C)cc(OCc3cccnc3C(F)(F)F)cc2c1C(=O)NC1CCNCC1(F)F` (single isomer, unassigned) [183 - En 1, N-(3,3-difluoropiperidin-4-yl)-2,7-dimethyl-5-((2-(trifluoromethyl)pyridin-3-yl)methoxy)benzofuran-3-carboxamide], for which the IC50 fell in the range of 1000 to 20000 nM. Regarding `Cc1oc2c(C)cc(OCc3cccnc3C(F)(F)F)cc2c1C(=O)NC1CCNCC1(F)F` (single isomer, unassigned) [183 - En 2, N-(3,3-difluoropiperidin-4-yl)-2,7-dimethyl-5-((2-(trifluoromethyl)pyridin-3-yl)methoxy)benzofuran-3-carboxamide], the IC50 is at least 20000 nM. Molecule `Cc1oc2c(Cl)cc(OCc3cccnc3C(F)(F)F)cc2c1C(=O)NC1CCNCC1(F)F` (single isomer, unassigned) [184 - En 1] yielded an IC50 of 1000 to 20000 nM. Molecule `Cc1oc2c(Cl)cc(OCc3cccnc3C(F)(F)F)cc2c1C(=O)NC1CCNCC1(F)F` (single isomer, unassigned) [184 - En 2] had an IC50 of at least 20000 nM. `Cc1oc2cc(C#N)c(OCc3cccnc3C(F)(F)F)cc2c1C(=O)NC1CCNCC1(F)F` (single isomer, unassigned) [195 - En 2, 6-cyano-N-(3,3-difluoropiperidin-4-yl)-2-methyl-5-((2-(trifluoromethyl)pyridin-3-yl)methoxy)-benzofuran-3-carboxamide] yielded an IC50 of 1000 to 20000 nM.

The record behind these values is patent US20240336602A1 (Katholieke Universiteit Leuven, priority 2020, published 2024).
